Reference: the supplement of paper PMC10307832

Experiments:
Experiment in all cases: relative viability (nuclei count vs DMSO), 5 days (fraction); higher = more cells survive
[1] = compound: CC1=CC(=CC=C1)NC2=NC(=CS2)C3=CC=NC=C3 + Cc1nc(Nc2ncc(C(=O)Nc3c(C)cccc3Cl)s2)cc(N2CCN(CCO)CC2)n1 [Dasatinib] (partner 0.075 µM)
Outline: (§1)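 Relative viability equals treated-well nuclei counts divided by vehicle-well nuclei counts. Counts came from 4× images of lung cancer cell lines grown in 1536-well plates for 5 days after pin-tool dosing on the day after seeding. Dosing used one drug alone or a fixed anchor-drug dose plus five library-drug doses (not always all listed) in √10 steps, and values are medians of duplicate plates.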

[2] = compound: CC1=CC(=CC=C1)NC2=NC(=CS2)C3=CC=NC=C3 + Cc1nc(NC(=O)N2CCC[C@H]2C(N)=O)sc1-c1ccnc(C(C)(C)C(F)(F)F)c1 [Alpelisib] (partner 2 µM)
Outline: as §1

Masitinib + Phenformin = compound: Cc1ccc(NC(=O)c2ccc(CN3CCN(C)CC3)cc2)cc1Nc1nc(-c2cccnc2)cs1 [Masitinib] + N=C(N)NC(=N)NCCc1ccccc1 [Phenformin] (partner 250 µM)
Outline: as §1

Masitinib + Foretinib = compound: Cc1ccc(NC(=O)c2ccc(CN3CCN(C)CC3)cc2)cc1Nc1nc(-c2cccnc2)cs1 [Masitinib] + COc1cc2c(Oc3ccc(NC(=O)C4(C(=O)Nc5ccc(F)cc5)CC4)cc3F)ccnc2cc1OCCCN1CCOCC1 [Foretinib] (partner 0.25 µM)
Outline: as §1

Row | Cell Line | relative viability ([1]; first compound 0.08 µM) | relative viability ([1]; first compound 0.253 µM) | relative viability ([1]; first compound 0.8 µM) | relative viability ([1]; first compound 2.53 µM) | relative viability ([1]; first compound 8 µM) | relative viability ([2]; first compound 0.08 µM) | relative viability ([2]; first compound 0.253 µM) | relative viability ([2]; first compound 0.8 µM) | relative viability ([2]; first compound 2.53 µM) | relative viability ([2]; first compound 8 µM) | relative viability (Masitinib + Phenformin; first compound 0.03162 µM) | relative viability (Masitinib + Phenformin; first compound 0.3162 µM) | relative viability (Masitinib + Phenformin; first compound 1 µM) | relative viability (Masitinib + Foretinib; first compound 0.03162 µM) | relative viability (Masitinib + Foretinib; first compound 0.3162 µM) | relative viability (Masitinib + Foretinib; first compound 1 µM) | relative viability (Masitinib + Phenformin; first compound 0.01 µM) | relative viability (Masitinib + Phenformin; first compound 0.1 µM) | relative viability (Masitinib + Foretinib; first compound 0.01 µM) | relative viability (Masitinib + Foretinib; first compound 0.1 µM)
1 | HCC-366 | 0.543 | 0.567 | 0.625 | 0.48 | 0.365 | 0.306 | 0.215 | 0.275 | 0.317 | 0.209 | 0.59 | 0.572 | 0.575 | 0.933 | 0.961 | 0.998 |  |  |  | 
2 | HCC-827 | 0.422 | 0.352 | 0.437 | 0.455 | 0.464 | 0.946 | 0.913 | 0.907 | 1.03 | 0.836 | 0.433 | 0.411 | 0.318 | 1.05 | 1 | 1.06 | 0.395 | 0.382 | 1.03 | 1.06
3 | HOP-62 | 0.52 | 0.605 | 0.527 | 0.594 | 0.449 | 0.932 | 0.809 | 1.1 | 1.06 | 1.17 | 0.744 | 0.827 | 0.691 | 1.04 | 1.17 | 1.14 | 0.55 | 0.668 | 1.02 | 1.22
4 | IA-LM |  |  |  |  |  | 0.706 |  | 0.815 | 0.533 | 0.673 |  |  |  | 1.09 | 1.12 | 1.36 |  |  | 1.24 | 1.13
5 | LC-2-ad | 0.522 |  | 0.59 | 0.431 | 0.478 | 0.859 | 0.698 | 0.812 | 0.813 | 0.817 | 0.573 | 0.627 | 0.557 | 0.859 | 0.847 | 0.825 | 0.517 | 0.622 | 0.87 | 1.09
6 | LCLC-97TM1 | 0.898 | 0.824 | 0.963 | 0.856 | 1.01 |  |  | 0.298 | 0.258 | 0.238 | 0.458 | 0.492 | 0.446 | 0.966 | 1.08 | 0.874 |  | 0.407 |  | 0.941
7 | LCLC-103H | 0.517 | 0.44 | 0.41 | 0.386 | 0.385 | 0.774 | 0.875 | 0.909 | 0.967 | 0.883 | 0.348 | 0.344 | 0.293 | 0.684 | 0.703 | 0.735 | 0.339 | 0.306 | 0.743 | 0.773
8 | LK-2 |  | 0.241 | 0.421 |  | 0.327 | 0.898 | 1.09 | 1.33 |  | 1.19 | 0.347 | 0.535 | 0.43 | 1.3 | 1.13 | 1.22 | 0.481 | 0.423 | 1.19 | 1.4
9 | LOU-NH91 | 0.464 | 0.51 | 0.432 | 0.472 | 0.458 | 0.617 | 0.686 | 0.59 | 0.698 | 0.592 | 0.606 | 0.54 | 0.605 | 0.908 | 0.858 | 0.897 | 0.656 | 0.683 | 0.886 | 0.958
10 | LU99A | 0.543 | 0.525 | 0.521 | 0.517 | 0.479 |  | 0.49 | 0.433 | 0.428 | 0.443 | 0.807 | 0.856 | 0.703 | 0.823 | 1.01 | 0.822 | 0.868 | 0.859 | 0.901 | 0.877
11 | LXF-289 | 0.194 | 0.214 | 0.224 | 0.183 | 0.159 | 0.993 | 1.03 | 1.02 | 1.03 | 0.91 | 0.514 | 0.522 | 0.451 | 0.965 | 1.01 | 0.988 | 0.461 | 0.477 | 0.792 | 0.951
12 | NCI-H23 | 0.74 | 0.542 | 0.741 | 0.714 | 0.792 | 0.567 | 0.677 | 0.727 | 0.634 | 0.738 | 0.734 | 0.781 | 0.748 | 1.05 | 0.564 | 1.01 | 0.846 | 0.881 | 0.945 | 1.04
13 | NCI-H522 | 0.851 | 0.792 | 0.933 | 0.809 | 0.983 |  |  |  |  |  |  | 0.775 | 0.714 |  |  |  | 0.653 | 0.635 |  | 
14 | NCI-H1299 |  |  |  |  |  | 1.04 | 1.01 | 1.05 | 1.05 | 0.988 |  |  |  | 1.06 | 1.09 | 1.07 |  |  | 1.04 | 1.09
15 | NCI-H1623 | 0.525 | 0.506 | 0.625 | 0.521 | 0.575 |  |  |  |  |  | 0.494 | 0.52 | 0.533 | 0.739 | 0.707 | 0.735 | 0.509 | 0.564 | 0.771 | 0.771
16 | NCI-H1650 | 0.325 | 0.28 | 0.366 | 0.228 | 0.221 |  |  |  |  |  | 0.334 | 0.371 | 0.362 | 0.914 | 0.902 | 1.17 | 0.419 | 0.447 | 0.984 | 1.09
17 | NCI-H1703 |  |  |  |  |  | 0.391 | 0.294 | 0.408 | 0.354 | 0.323 |  |  |  | 0.308 | 0.342 | 0.328 |  |  | 0.315 | 0.287
18 | NCI-H1792 | 0.689 |  | 0.832 | 0.54 | 0.63 | 0.628 | 0.523 | 0.567 | 0.443 | 0.589 | 0.258 | 0.363 | 0.191 |  |  |  | 0.216 | 0.233 |  | 
19 | NCI-H2342 | 0.306 | 0.303 | 0.302 | 0.278 | 0.311 |  |  |  |  |  | 0.567 | 0.614 | 0.573 | 0.875 | 1.13 | 1.01 | 0.71 | 0.615 | 1.09 | 1.08
20 | SW 900 | 0.358 | 0.477 | 0.527 | 0.615 | 0.383 |  |  |  |  |  | 0.609 | 0.448 | 0.436 | 0.846 | 0.798 | 1.03 | 0.652 | 0.706 | 0.757 | 1.04
